Results reported in patent US10966944B2, “[2.2.2] bicyclic derivatives and methods of use” (ASE PHARMACEUTICALS, LLC, priority 2008, dated 2021).

How the values were obtained:
[1] = test system: epilepsy patients; test: Clinical trials in epilepsy patients and volunteers (Example 1); format: in vivo, human
Protocol: Clinical trials involving administration of sodium bicyclo-[2.2.2]-octane-2-carboxylate were performed on 30 epilepsy patients and 20 volunteers in two clinics in Moscow. […] Classification of the patients was done in accordance with International Classification of Epilepsy and Epileptic Syndromes (ILAE, 1989). Some of the subjects also suffered from addictive disorders (alcoholism, drug addiction). In 73% of trial subjects, sodium bicyclo-[2.2.2]-octane-2-carboxylate administration reduced the frequency, intensity, and duration of epileptic seizures. […] It normalized cerebral blood circulation and increased the sympathetic tonus of the patients. […] The following were used to assess trial subjects: • Visual checkup • EEG • CT • MRT • Clinical blood and urine tests • general blood test • biochemical blood test • general urine tests • Inspection and checkup of organs and systems: • respiratory system • cardiovascular system • alimentary system • urinary system • Neurological status • Concurrent disease status.

[2] = test system: adult epilepsy patients; test: Randomized open-controlled study, add-on to base therapy: frequency and severity of epileptic seizures (Example 2); format: in vivo, human
Protocol: The study of sodium bicyclo-[2.2.2]-octane-2-carboxylate as an addition to a base therapy was conducted in the group of adult epilepsy patients. Sodium bicyclo-[2.2.2]-octane-2-carboxylate was administered during 10 weeks. Thirty patients in both hospitals (twenty-six males and four females) were included in the studies.
Base therapy was administered in accordance with recommendations by the International Anti-epileptic League (1989). During the study, the patients continued to receive pathogenetic treatment. Medication names, doses and the duration of any treatment were registered in patients' medical records (MR). The patients continued receiving their standard prescribed medications and were not switched to a different drug at any time during the study.
During the introductory period of 7 to 10 days, the patients were examined; base therapy scheme was being finalized and was described in a standard protocol. In accordance with the protocol, the patients were screened for inclusion/exclusion factors. Only those patients who signed an informed consent and who satisfied the inclusion criteria were included in the study. The frequency of epileptic seizures in patients receiving pre-sodium bicyclo-[2.2.2]-octane-2-carboxylate base therapy varied from 1 to 16 times a month.
(§1) At the start of sodium bicyclo-[2.2.2]-octane-2-carboxylate protocol, all patients began receiving sodium bicyclo-[2.2.2]-octane-2-carboxylate at 100 mg four times a day. If the clinical effect was absent by day 14, the dose of Sodium bicyclo-[2.2.2]-octane-2-carboxylate was increased to 150 mg. Patients with various forms of epilepsy were selected for the study (Table 2).
(§2) Main study parameters included efficiency criteria such as the number and severity of seizures, and safety criteria such as the clinical and laboratory tests. The complete examination included: • 1) Neurological exams. • 2) Computer-assisted tomography (CAT scan). • 3) MRI of the brain. • 4) General blood work: baseline before Sodium bicyclo-[2.2.2]-octane-2-carboxylate treatment, 2 weeks and 1.5 months after the beginning of the treatment. • 5) General urine analysis. • 6) Blood biochemistry. • 7) ECG. • 8) EEG and pharmaco-EEG. Physical exams and testing results were registered by a research physician in the MRs and were analyzed by statistical methods.
To evaluate treatment efficacy, the frequency and severity of epileptic seizures were monitored. […] In the majority of patients suffering from partial epilepsy, seizures became less severe and occurred less frequently. The patients reported feeling better, with improvement of mood, work efficiency, and sleep quality. […]

[3] = test system: adult epilepsy patients; test: General blood work before and after treatment (Example 2, safety); format: in vivo, human
Protocol: as §1, §2
(§3) The effective therapeutic dose was determined as 400 mg per day in 60% of the patients, and 600 mg per day in the remaining 40%. Safety aspects of sodium bicyclo-[2.2.2]-octane-2-carboxylate were evaluated during the treatment and after the treatment by monitoring the clinical and laboratory parameters.
(§4) Before-before Sodium bicyclo-[2.2.2]-octane-2-carboxylate treatment After-after Sodium bicyclo-[2.2.2]-octane-2-carboxylate treatment. No statistically significant differences in any other parameters before and after Sodium bicyclo-[2.2.2]-octane-2-carboxylate treatment were detected.

[4] = test system: adult epilepsy patients; test: Blood chemistry before and after treatment (Example 2, safety); format: in vivo, human
Protocol: as §1, §2, §3, §4

[5] = test system: adult epilepsy patients; test: EEG parameters before and after treatment (Example 2); format: in vivo, human; conditions: averaged, after treatment (before treatment: 197.7)
Excerpt: as §2

[6] = test system: adult epilepsy patients; test: ECG recording during the study (Example 2); format: in vivo, human; conditions: patients with extrasystolia and tachycardia
Excerpt: as §2, with “methods. ECGs were recorded before the beginning of the treatment, during the course of the study (on a regular basis), and immediately after the study had been completed. […] In the patients with extrasystolia and tachycardia, extrasystolia was not observed by the end of the first treatment month, while the heart rate decreased on average from 88/min to 80/min. In the patients with bradycardia, sinus rhythm dropped further.” for “methods.”

[7] = test system: adult epilepsy patients; test: Dysphoria and general condition in the study patients (Example 2); format: in vivo, human
Protocol: During each scheduled visit and at the completion of the study, complete physical examination of each patient was performed. Physical exams included patients' general condition, examinations of the skin, ENT, lungs, heart, stomach, lymph nodes, central nervous system, etc. Valid data obtained before beginning of Sodium bicyclo-[2.2.2]-octane-2-carboxylate treatment was entered in appropriate sections of MRs. The data collected during the treatment (including the observed side effects) was entered in the Brief Description sections of the MRs. […] This effect correlated with disappearance of alcohol addiction.

[8] = average, after treatment (before: 4.75)
[9] = deviation after vs before treatment

O=C([O-])C1CC2CCC1CC2.[Na+] (centres unmarked) [Sodium bicyclo-[2.2.2]-octane-2-carboxylate]
trial subjects with reduced frequency, intensity, and duration of epileptic seizures ([1]; 30 epilepsy patients and 20 volunteers, two clinics): 73% | side effects in human clinical trials ([1]; human clinical trials): without significant negative side effects | effective therapeutic dose ([2]; in 60% of the patients): 400 mg per day | effective therapeutic dose ([2]; in the remaining 40% of the patients): 600 mg per day | patients with decrease in seizure frequency (number) ([2]; of 30 patients): 22 patients | patients with decrease in seizure frequency (percent) ([2]; of 30 patients): 73.3% | Color Index, After ([3]; average, after treatment (before: 0.895)): 0.928 | Eosinophiles (%), After ([3]; average, after treatment (before: 2.53)): 2.53% | Monocytes (%), After ([3]; average, after treatment (before: 3.0)): 2.8% | Erythrocytes, After [3, 8]: 4.79 10^12/L | ESR, After ([3]; average, after treatment (before: 7.3)): 5.2 mm | Leukocytes, After ([3]; average, after treatment (before: 7.9)): 7.47 10^9/L | Lymphocytes (%), After ([3]; average, after treatment (before: 20.9)): 21.1% | Neutrophiles (%), After ([3]; average, after treatment (before: 72.7)): 71.2% | Hemoglobin, After ([3]; average, after treatment (before: 143.4), in g/L (unit assumed)): 140.13 | Platelets, After ([3]; average, after treatment (before: 205.5), in 10^9/L (unit assumed)): 230.3 | Color Index, % dev. [3, 9]: 3.7% | ESR, % dev. [3, 9]: 28.8% | Eosinophiles, % dev. [3, 9]: 0% | Erythrocytes, % dev. [3, 9]: 1.48% | Hemoglobin, % dev. [3, 9]: 2.3% | Leukocytes, % dev. [3, 9]: 5.95% | Lymphocytes, % dev. [3, 9]: 0.94% | Monocytes, % dev. [3, 9]: 6.7% | Neutrophiles, % dev. [3, 9]: 2.06% | Platelets, % dev. [3, 9]: 12.07% | effects on the blood counts and blood biochemistry ([3]; during and after the treatment): No unfavorable effects | changes in blood and urine tests ([3]; summary of the study): did not cause any changes | Glucose, After [4, 8]: 4.48 mmol/L | General bilirubin, After ([4]; average, after treatment (before: 14.3)): 11.5 µmol/L | ACT, After ([4]; average, after treatment (before: 45.1)): 24.6 | ALT, After ([4]; average, after treatment (before: 46.2)): 21.5 | Creatinin, after ([4]; average, after treatment (before: 70.5)): 69.4 µmol/L | General Protein, After ([4]; average, after treatment (before: 75.5)): 77.4 g/L | ACT, % dev. [4, 9]: 45.4% | ALT, % dev. [4, 9]: 53.5% | Creatinin, % dev. [4, 9]: 1.6% | General Protein, % dev. [4, 9]: 2.5% | General bilirubin, % dev. [4, 9]: 19.6% | Glucose, % dev. [4, 9]: 5.7% | EEG parameters (focus of pathological activity) [5]: 151.5 μV | heart rate ([6]; average, decreased from 88/min): 80 min⁻¹ | extrasystolia ([6]; by the end of the first treatment month): not observed | patients' behavior and the functions of major organs and systems ([7]; during 10 weeks of treatment): not negatively affected | cases with effective treatment of dysphoria or dysphoria-like conditions ([7]; of all cases): 93.3% | dysphoria and paroxysmal activity on EEG ([7]; patients who suffered from alcohol addiction in the past, after 1.5 month of treatment): disappeared or decreased | melting point: 84 to 86 °C
